According to publication PMC6309308 (Cell chemical biology, 2018):
Several values for one entry are separate records, joined by “and”; a condition that tells them apart may be missing. Equal values may be shown once.

Tests used:
Rpn11 = Rpn11 (Homo sapiens, UniProt O00487); assay: Rpn11 activity assay with Ub4-peptide substrate; format: biochemical; details: read-out: IC50 Rpn11
Csn5 = Csn5 (Homo sapiens, UniProt Q92905); assay: Csn5 inhibition assay; format: biochemical; details: read-out: IC50 Csn5
AMSH = target: T1, AMSH (Homo sapiens, UniProt O95630); assay: AMSH inhibition assay; format: biochemical; details: read-out: IC50 AMSH
T1 sequence (O95630 1-424): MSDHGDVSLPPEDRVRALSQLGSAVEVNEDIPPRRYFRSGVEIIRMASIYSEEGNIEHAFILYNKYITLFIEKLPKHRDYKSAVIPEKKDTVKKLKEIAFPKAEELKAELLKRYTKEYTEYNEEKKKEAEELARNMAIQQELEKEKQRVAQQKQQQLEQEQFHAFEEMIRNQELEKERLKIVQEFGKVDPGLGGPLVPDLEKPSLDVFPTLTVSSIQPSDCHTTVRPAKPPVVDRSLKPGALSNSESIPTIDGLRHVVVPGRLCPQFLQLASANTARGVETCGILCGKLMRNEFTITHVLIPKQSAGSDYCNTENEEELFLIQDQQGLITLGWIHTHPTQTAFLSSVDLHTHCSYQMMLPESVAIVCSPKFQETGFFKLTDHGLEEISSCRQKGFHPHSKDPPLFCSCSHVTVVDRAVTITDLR

[1] = target: Human carbonic anhydrase II (hCAII) (Homo sapiens, UniProt P00918); assay: hCAII assay; format: biochemical; details: read-out: IC50 hCAII; 10 nM hCAII, pH 8.0
MMP-2 = target: T2, MMP-2 (Homo sapiens, UniProt P08253); assay: MMP-2 assay; format: biochemical; details: read-out: IC50 MMP-2
T2 sequence (P08253 110-660): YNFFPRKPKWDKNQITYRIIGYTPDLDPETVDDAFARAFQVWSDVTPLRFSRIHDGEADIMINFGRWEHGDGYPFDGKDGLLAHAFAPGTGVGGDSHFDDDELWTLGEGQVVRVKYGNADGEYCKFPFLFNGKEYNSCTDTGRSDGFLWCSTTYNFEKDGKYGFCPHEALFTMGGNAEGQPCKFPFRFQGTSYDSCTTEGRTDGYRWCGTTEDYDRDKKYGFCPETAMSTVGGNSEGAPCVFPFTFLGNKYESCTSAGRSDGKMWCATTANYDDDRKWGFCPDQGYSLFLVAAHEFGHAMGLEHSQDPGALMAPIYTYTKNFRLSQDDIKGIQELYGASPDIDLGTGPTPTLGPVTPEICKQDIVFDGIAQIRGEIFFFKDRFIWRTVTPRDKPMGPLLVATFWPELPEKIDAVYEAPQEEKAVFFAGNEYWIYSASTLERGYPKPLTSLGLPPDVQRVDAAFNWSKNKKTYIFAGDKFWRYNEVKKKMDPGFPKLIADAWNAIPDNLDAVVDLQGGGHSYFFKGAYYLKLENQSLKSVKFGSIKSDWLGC

[2] = tested on: HCT116 human colon cancer cells; assay: HCT116 cell proliferation; format: cell-based
WT RPE1 cells = assay: RPE1 WT cell proliferation; format: cell-based; details: WT RPE cells, 72 hours
[3] = tested on: bortezomib-resistant (BTZR) RPE1 cells; assay: Bortezomib-resistant RPE1 cell proliferation; format: cell-based; details: BTZR RPE cells, 72 hours
[4] = tested on: c-Myc mRNA in HCT116 cells; assay: c-Myc mRNA expression by qRT-PCR; format: cell-based, human; details: 10 μM, 4 hours, normalized to GAPDH
[5] = tested on: unfolded protein response in HCT116 cells; assay: Unfolded protein response immunoblot; format: cell-based, human; details: HCT116, 6 hours
HCT116 cells = assay: Cell detachment; details: ETPs 10 μM, 3 hours
NFE2L1 in HCT116 cells = assay: Immunoblot of NFE2L1 accumulation; details: HCT116, 6 hours
[6] = target: purified human 26S proteasome (Homo sapiens, UniProt O00487+P28074); assay: SDS-PAGE analysis of proteasome activity; format: biochemical; details: 37 °C, 2 hours; 20 μM capzimin, 10 μM carfilzomib
26S proteasome = 26S proteasome (Homo sapiens, UniProt O00487); assay: Fluorescence polarization protein degradation assay with purified 26S proteasome; details: 37 °C, SOP6, gliotoxin 10 µM each
IκB = assay: IκBα degradation assay after TNF-α stimulation; format: cell-based, human; details: Hela cells, 10 minutes pre-treatment, TNF-α 30 minutes
[7] = tested on: ubiquitin conjugates in HCT116 cells; assay: Immunoblot of poly-ubiquitinated species; details: HCT116, 10 μM, 3 hours
Cul1 in HCT116 cells = assay: Immunoblot of Nedd8-conjugated Cul1; details: HCT116, 6 hours
[8] = target: chymotrypsin-like activity of the 20S proteasome (Homo sapiens, UniProt P28074); assay: Suc-LLVY-amc fluorescence assay of chymotrypsin-like activity; details: 20 µM compound, 20 μM Suc-LLVY-amc, 15 nM 26S proteasome

SMILES: O=C1[C@H]2N(Cc3ccccc3)C(=O)[C@@](Cc3ccccc3)(N1Cc1ccccc1)S2=S (mixture of isomers) [SOP11, (±)-(1S,4S)-1,2,5-tribenzyl-7-thia-2,5-diazabicyclo[2.2.1]heptane-3,6-dione 7-sulfide]
- IC50 (Rpn11): 1.3 ± 0.3 µM
- IC50 (Csn5): 0.6 ± 0.2 µM
- IC50 (AMSH): 0.9 ± 0.1 µM
- IC50 [1]: > 100 µM
- IC50 (MMP-2): > 100 µM
- GI50 [2]: ~4.7 µM and 4.7 µM
- GI50 (WT RPE1 cells): ~8 µM
- GI50 [3]: ~8 µM
- level of c-Myc mRNA [4]: decreased
- unfolded protein response (UPR) [5]: provoked a pronounced UPR
- cell detachment (HCT116 cells): did not detach cells
- accumulation of processed NFE2L1 (NFE2L1 in HCT116 cells): induced accumulation of processed NFE2L1

SMILES: Nc1ncnc2c1ncn2[C@@H]1O[C@H](COP(=O)(O)OP(=O)(O)NP(=O)(O)O)[C@@H](O)[C@H]1O [AMP-PNP]
- degradation of UbnGST-Wbp2 by 26S proteasome (SDS-PAGE) [6]: blocked

SMILES: Nc1ncnc2c1ncn2[C@@H]1O[C@H](CO[P@](=O)(O)O[P@](=O)(O)O[P@@](=O)(O)S)[C@@H](O)[C@H]1O [ATPγS]
- effect on decline in fluorescence polarization (K48UbnGST-Wbp2 degradation) (26S proteasome): inhibited

SMILES: CC(C)C[C@H](NC(=O)[C@H](Cc1ccccc1)NC(=O)c1cnccn1)B(O)O [bortezomib]
- cell detachment (HCT116 cells): not observed

SMILES: O=C(NCCc1nccs1)c1cnc2c(SSc3cccc4cc(C(=O)NCCc5nccs5)cnc34)cccc2c1 [capzimin]
- degradation of UbnGST-Wbp2 by 26S proteasome (SDS-PAGE) [6]: blocked
- cell detachment (HCT116 cells): not observed

SMILES: CC(C)C[C@H](NC(=O)[C@H](CCc1ccccc1)NC(=O)CN1CCOCC1)C(=O)N[C@@H](Cc1ccccc1)C(=O)N[C@@H](CC(C)C)C(=O)[C@@]1(C)CO1 [carfilzomib]
- degradation of UbnGST-Wbp2 by 26S proteasome (SDS-PAGE) [6]: blocked

SMILES: CN1C(=O)[C@]2(Cc3cn([C@]45C[C@@]67SS[C@@](CO)(C(=O)N6[C@H]4Nc4ccccc45)N(C)C7=O)c4ccccc34)SS[C@@]1(CO)C(=O)N2C [chetomin]
- effect on degradation of IκB induced by TNF-α (IκB): strongly stabilized IκB

SMILES: CN1C(=O)[C@]23CC4=CC=C[C@H](O)[C@H]4N2C(=O)[C@@]1(CO)SS3 [gliotoxin]
- effect on degradation of IκB induced by TNF-α (IκB): strongly stabilized IκB
- cell detachment (HCT116 cells): induce cell detachment
- accumulation of poly-ubiquitinated species [7]: led to the accumulation of ubiquitinated species
- accumulation of Nedd8-conjugated Cul1 (Cul1 in HCT116 cells): caused accumulation of Nedd8-conjugated Cul1
- inhibition of chymotrypsin-like activity of the proteasome [8]: do not inhibit
